This note sets out measurements from ChEMBL document CHEMBL1126480, “Peptide azoles: A new class of biologically-active dipeptide mmetics” (Bioorg Med Chem Lett, 1993).

T1 sequence (P30547 whole entry): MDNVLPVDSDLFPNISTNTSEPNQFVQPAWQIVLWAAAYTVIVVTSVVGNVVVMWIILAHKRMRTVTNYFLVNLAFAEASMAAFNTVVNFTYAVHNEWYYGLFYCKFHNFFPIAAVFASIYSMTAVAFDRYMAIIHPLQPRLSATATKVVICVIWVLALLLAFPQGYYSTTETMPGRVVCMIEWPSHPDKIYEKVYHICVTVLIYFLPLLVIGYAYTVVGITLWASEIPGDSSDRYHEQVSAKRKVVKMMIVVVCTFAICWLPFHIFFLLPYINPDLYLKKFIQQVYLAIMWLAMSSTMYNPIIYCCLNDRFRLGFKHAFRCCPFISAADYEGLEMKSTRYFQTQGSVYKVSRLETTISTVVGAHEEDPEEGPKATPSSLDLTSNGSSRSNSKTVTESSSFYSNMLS

The first assay concerns the target T1, Substance-P receptor (Cavia porcellus, UniProt P30547). Description: The compound was evaluated in vitro for the antagonistic activity against substance P receptor in guinea pig myenteric plexus longitudinal muscle strips. The format is functional. The conditions noted are these: read-out: pA2 (converted).
Take `CC(C)C[C@H](NC(=O)[C@@H](Cc1c[nH]c2ccccc12)c1cnc(C(=O)[C@H](Cc2ccccc2)NC(=O)[C@@H](Cc2c[nH]c3ccccc23)NC(=O)[C@@H]2CCCN2)s1)C(=O)N[C@@H](Cc1ccccc1)C(N)=O`: the Kb was 1260 nM.

Regarding `CC(C)C[C@H](NC(=O)[C@@H](Cc1c[nH]c2ccccc12)NC(=O)[C@H](Cc1ccccc1)c1cnc([C@@H](Cc2c[nH]c3ccccc23)NC(=O)[C@@H]2CCCN2)o1)C(=O)N[C@@H](Cc1ccccc1)C(N)=O`, the Kb is 501 nM. On the same count and under the same terms, next, `CC(C)C[C@H](NC(=O)[C@@H](Cc1c[nH]c2ccccc12)NC(=O)[C@H](Cc1ccccc1)c1cnc([C@@H](Cc2c[nH]c3ccccc23)NC(=O)[C@@H]2CCCN2)s1)C(=O)N[C@@H](Cc1ccccc1)C(N)=O`: 39.8 nM; H-PWFWLF-NH2: 398 nM; `CC(C)C[C@H](NC(=O)[C@@H](Cc1c[nH]c2ccccc12)NC(=O)[C@H](Cc1ccccc1)c1c[nH]c([C@@H](Cc2c[nH]c3ccccc23)NC(=O)[C@@H]2CCCN2)n1)C(=O)N[C@@H](Cc1ccccc1)C(N)=O`: 200 nM.

For a further assay, the target named is T1, Substance-P receptor. Description: The compound was evaluated in vitro for the antagonistic activity against Tachykinin receptor 1 in guinea pig myenteric plexus longitudinal muscle strips. The conditions noted are these: read-out: pA2 (converted). The format is functional.
For the molecule `CC(C)C[C@H](NC(=O)[C@@H](Cc1c[nH]c2ccccc12)NC(=O)[C@H](Cc1ccccc1)c1cnc([C@H](Cc2c[nH]c3ccccc23)NC(=O)[C@@H]2CCCN2)s1)C(=O)N[C@@H](Cc1ccccc1)C(N)=O`, the Kb was 126 nM.
